Test system: MCF-7 breast cancer cells
Test: Microarray gene expression analysis (Agilent whole human genome 4 x 44K; compound vs DMSO, LIMMA log2 fold change)
Format: cell-based

Which “ARHGEF18 log2FC” value (gene ARHGEF18 (23370), apoptosis genes) does the source give for Oc1cccc(-c2nc(N3CCOCC3)c3oc4ncccc4c3n2)c1 [PI-103] here?
Its value is -0.106.

What about the “ATOH1 log2FC” value (gene ATOH1 (474), apoptosis genes) of the same compound?
Its value is -0.042.

What about the “ATPIF1 log2FC” value (gene ATPIF1 (93974), apoptosis genes) of the same compound?
The value was 0.131.

And the log2FC (gene ATR (Gene 545), cell cycle genes)?
The log2FC was 0.11.

And the log2FC (gene BAD (Gene 572), cell cycle genes)?
The log2FC was 0.53.

What about the “BCL2L10 log2FC” value (gene BCL2L10 (10017), apoptosis genes) of the same compound?
The value was -0.066.

And the “BDKRB2 log2FC” value (gene BDKRB2 (624), apoptosis genes)?
The value was -0.025.

And the “BIRC2 log2FC” value (gene BIRC2 (329), apoptosis genes)?
The value was -0.339.

And the “BIRC8 log2FC” value (gene BIRC8 (112401), apoptosis genes)?
Its value is -0.038.

What about the “BMP2 log2FC” value (gene BMP2 (650), apoptosis genes) of the same compound?
The value was -0.233.

And the log2FC (gene BMP4 (Gene 652), cell cycle genes)?
The log2FC was 0.22.

And the “BMP5 log2FC” value (gene BMP5 (653), apoptosis genes)?
The value was -0.019.

And the “BOK log2FC” value (gene BOK (666), apoptosis genes)?
Its value is 0.093.

And the log2FC (gene BRE (Gene 9577), cell cycle genes)?
The log2FC was -0.21.

And the “BTK log2FC” value (gene BTK (695), apoptosis genes)?
Its value is 0.086.

What about the log2FC (gene BUB1B (Gene 701), cell cycle genes) of the same compound?
Its log2FC is 0.15.

And the “C1QBP log2FC” value (gene C1QBP (708), apoptosis genes)?
Its value is -0.112.

And the “C3orf38 log2FC” value (gene C3orf38 (285237), apoptosis genes)?
Its value is -0.159.

And the log2FC (gene CAMK2B (Gene 816), cell cycle genes)?
Its log2FC is 0.01.

And the “CAPN3 log2FC” value (gene CAPN3 (825), apoptosis genes)?
Its value is -0.026.

What about the “log2FC CAPN3” value (gene CAPN3 (Gene 825), cell cycle genes) of the same compound?
Its value is -0.0259.

And the “CARD9 log2FC” value (gene CARD9 (64170), apoptosis genes)?
The value was 0.028.

And the “CARD14 log2FC” value (gene CARD14 (79092), apoptosis genes)?
The value was 0.056.

And the log2FC (gene CASP3 (Gene 836), cell cycle genes)?
Its log2FC is 0.31.

What about the “CASP10 log2FC” value (gene CASP10 (843), apoptosis genes) of the same compound?
The value was 0.088.

What about the “CASP12 log2FC” value (gene CASP12 (120329), apoptosis genes) of the same compound?
Its value is 0.062.

And the “CCK log2FC” value (gene CCK (885), apoptosis genes)?
The value was -0.021.

And the “CCL19 log2FC” value (gene CCL19 (6363), apoptosis genes)?
Its value is 0.205.

What about the log2FC (gene CCNB2 (Gene 9133), cell cycle genes) of the same compound?
The log2FC was 0.20.

And the log2FC (gene CCNH (Gene 902), cell cycle genes)?
Its log2FC is 0.14.

What about the log2FC (gene CCNT2 (Gene 905), cell cycle genes) of the same compound?
Its log2FC is 0.14.

What about the “CD38 log2FC” value (gene CD38 (952), apoptosis genes) of the same compound?
Its value is 0.042.

And the “CD40LG log2FC” value (gene CD40LG (959), apoptosis genes)?
The value was -0.017.

What about the “CD248 log2FC” value (gene CD248 (57124), apoptosis genes) of the same compound?
The value was 0.046.

What about the log2FC (gene CDC73 (Gene 79577), cell cycle genes) of the same compound?
The log2FC was 0.33.

What about the “CDH1 log2FC” value (gene CDH1 (999), apoptosis genes) of the same compound?
The value was 0.556.

What about the “log2FC CDH13” value (gene CDH13 (Gene 1012), cell cycle genes) of the same compound?
Its value is 0.0463.

What about the “log2FC CDK2AP1” value (gene CDK2AP1 (Gene 8099), cell cycle genes) of the same compound?
The value was -0.15.

What about the “CDK5 log2FC” value (gene CDK5 (1020), apoptosis genes) of the same compound?
The value was 0.184.

And the “log2FC CDK5RAP1” value (gene CDK5RAP1 (Gene 51654), cell cycle genes)?
Its value is 0.0451.

What about the “log2FC CDKN2B” value (gene CDKN2B (Gene 1030), cell cycle genes) of the same compound?
The value was -0.0758.

And the log2FC (gene CENPJ (Gene 55835), cell cycle genes)?
The log2FC was 0.11.

And the log2FC (gene CENPK (Gene 64105), cell cycle genes)?
Its log2FC is 0.33.

What about the log2FC (gene CETN3 (Gene 1070), cell cycle genes) of the same compound?
The log2FC was 0.33.

What about the log2FC (gene CHEK2 (Gene 11200), cell cycle genes) of the same compound?
Its log2FC is 0.11.

And the “CHIA log2FC” value (gene CHIA (27159), apoptosis genes)?
Its value is -0.110.

What about the “CIDEA log2FC” value (gene CIDEA (1149), apoptosis genes) of the same compound?
The value was -0.071.

And the “CLC log2FC” value (gene CLC (1178), apoptosis genes)?
The value was -0.00153.

What about the “CLEC5A log2FC” value (gene CLEC5A (23601), apoptosis genes) of the same compound?
Its value is -0.040.

What about the “CLSPN log2FC” value (gene CLSPN (63967), apoptosis genes) of the same compound?
Its value is -0.114.

What about the “CNTFR log2FC” value (gene CNTFR (1271), apoptosis genes) of the same compound?
The value was -0.050.

What about the “COL2A1 log2FC” value (gene COL2A1 (1280), apoptosis genes) of the same compound?
Its value is -0.00236.

What about the “COL4A3 log2FC” value (gene COL4A3 (1285), apoptosis genes) of the same compound?
The value was 0.543.

What about the “COMP log2FC” value (gene COMP (1311), apoptosis genes) of the same compound?
Its value is -0.113.

And the log2FC (gene COPS5 (Gene 10987), cell cycle genes)?
The log2FC was 0.16.

And the log2FC (gene CRLF3 (Gene 51379), cell cycle genes)?
Its log2FC is 0.14.

And the log2FC (gene CSNK2B (Gene 1460), cell cycle genes)?
Its log2FC is -0.06.

What about the “CST3 log2FC” value (gene CST3 (1471), apoptosis genes) of the same compound?
The value was 0.253.

What about the “CTLA4 log2FC” value (gene CTLA4 (1493), apoptosis genes) of the same compound?
The value was 0.009.

And the “CXCR4 log2FC” value (gene CXCR4 (7852), apoptosis genes)?
Its value is 0.375.

And the “CYR61 log2FC” value (gene CYR61 (3491), apoptosis genes)?
The value was -0.258.

And the “DAPK2 log2FC” value (gene DAPK2 (23604), apoptosis genes)?
The value was -1.207.

And the “DAXX log2FC” value (gene DAXX (1616), apoptosis genes)?
The value was -0.040.

And the “log2FC DAXX” value (gene DAXX (Gene 1616), cell cycle genes)?
Its value is -0.04.

And the log2FC (gene DCLRE1B (Gene 64858), cell cycle genes)?
The log2FC was -0.35.

What about the log2FC (gene DDX11 (Gene 1663), cell cycle genes) of the same compound?
The log2FC was -0.27.

What about the “DDX47 log2FC” value (gene DDX47 (51202), apoptosis genes) of the same compound?
The value was -0.196.

What about the “DEDD2 log2FC” value (gene DEDD2 (162989), apoptosis genes) of the same compound?
The value was 0.214.

And the “DFFB log2FC” value (gene DFFB (1677), apoptosis genes)?
The value was -0.041.

And the log2FC (gene DIAPH2 (Gene 1730), cell cycle genes)?
Its log2FC is 0.38.

And the “log2FC DIRAS3” value (gene DIRAS3 (Gene 9077), cell cycle genes)?
The value was 0.0278.

What about the “DMPK log2FC” value (gene DMPK (1760), apoptosis genes) of the same compound?
The value was 0.273.

What about the “DNM2 log2FC” value (gene DNM2 (1785), apoptosis genes) of the same compound?
Its value is 0.271.

And the “DPF1 log2FC” value (gene DPF1 (8193), apoptosis genes)?
Its value is -0.250.

And the “log2FC ECD” value (gene ECD (Gene 11319), cell cycle genes)?
Its value is -0.23.

What about the “EGR3 log2FC” value (gene EGR3 (1960), apoptosis genes) of the same compound?
The value was 0.187.

What about the “EGR4 log2FC” value (gene EGR4 (1961), apoptosis genes) of the same compound?
The value was 0.222.

What about the “ELMO1 log2FC” value (gene ELMO1 (9844), apoptosis genes) of the same compound?
Its value is 0.209.

What about the “EPB41L3 log2FC” value (gene EPB41L3 (23136), apoptosis genes) of the same compound?
The value was 0.039.
